Experimental data from BindingDB's records for doi:10.1021/jm8001026 (University of Texas At Dallas, 2008).
pIC50: −log10 of the molar value.

Molecular target: T1, Dihydroorotate dehydrogenase (quinone), mitochondrial (Plasmodium falciparum (isolate 3D7), UniProt Q08210)
T1 sequence (Q08210 whole entry): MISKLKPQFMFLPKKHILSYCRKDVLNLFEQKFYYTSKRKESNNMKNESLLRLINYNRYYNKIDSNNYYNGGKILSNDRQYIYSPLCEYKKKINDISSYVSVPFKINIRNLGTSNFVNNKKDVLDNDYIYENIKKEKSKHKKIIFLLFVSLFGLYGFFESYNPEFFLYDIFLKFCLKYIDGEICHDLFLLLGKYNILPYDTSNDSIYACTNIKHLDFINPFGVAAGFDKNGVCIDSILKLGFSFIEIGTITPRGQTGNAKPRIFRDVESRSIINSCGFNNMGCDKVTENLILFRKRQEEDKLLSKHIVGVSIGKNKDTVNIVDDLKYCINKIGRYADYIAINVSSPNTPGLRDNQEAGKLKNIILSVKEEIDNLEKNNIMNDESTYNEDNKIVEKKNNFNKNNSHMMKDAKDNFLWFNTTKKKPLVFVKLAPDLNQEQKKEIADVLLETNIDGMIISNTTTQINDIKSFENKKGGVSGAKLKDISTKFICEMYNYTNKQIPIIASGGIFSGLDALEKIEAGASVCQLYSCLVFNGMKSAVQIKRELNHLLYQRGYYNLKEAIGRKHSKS
Assay: DHODH Inhibition Assay
Settings: pH 8; 20 °C
Protocol: The assays were carried out by using a colorimetric DCIP method, which uses the colorimetric reagent 2, 6-dichlorophenolindophenol as the final electron acceptor. DCIP reduction is stoichiometrically equivalent to oxidation of dihydroorotate. Changes in absorbance were quantified on a plate reader and data were analyzed to measure the reduction of DCIP as a decrease in absorbance at 600 nm.

Row | pIC50 | SMILES
1 | < 4.00 | Cc1cc(Nc2ccccc2)n2ncnc2n1 [JMC521864 Compund DSM12]
2 | < 3.70 | Cc1cc(Nc2ccc(C(N)=O)cc2)n2ncnc2n1 [4-({5-methyl-[1,2,4]triazolo[1,5-a]pyrimidin-7-yl}amino)benzamide]
